Literature values in US7432380B2, “Crystalline form of Fluvastatin sodium” (Ciba Specialty Chemicals Corp., priority 2003, dated 2008).

Details: relative air humidity of surrounding atmosphere; from WO-A-03/13512

## CC(C)n1c(/C=C/[C@H](O)C[C@H](O)CC(=O)[O-])c(-c2ccc(F)cc2)c2ccccc21.[Na+] [Form F]
  air humidity of atmospheres in which the form is stable: up to 90%
